Experimental data from ChEMBL document CHEMBL1158963, “Taxinine M, a new tetracyclic taxane from Taxus brevifolia” (J Nat Prod, 1991).
Values after ≈ are worked out from the molar mass of the structure shown.

Assay: Toxicity in brine shrimp after 24 hrs
Format: organism-based
Settings: artemia, in vivo

Work on `C/C=C(\C)C(=O)N[C@@H](c1ccccc1)[C@@H](O)C(=O)O[C@H]1C[C@@]2(O)[C@@H](OC(=O)c3ccccc3)[C@@H]3[C@]4(OC(C)=O)CO[C@@H]4C[C@H](O)[C@@]3(C)C(=O)[C@H](OC(C)=O)C(=C1C)C2(C)C` [CEPHALOMANNINE] yielded an LC50 at 24 h of 0.81 µg/mL (≈ 0.974 µM).
In the case of `CC(=O)O[C@H]1C(=O)[C@@]2(C)[C@H]([C@H](OC(=O)c3ccccc3)[C@]3(O)C[C@H](OC(=O)[C@H](O)[C@@H](NC(=O)c4ccccc4)c4ccccc4)C(C)=C1C3(C)C)[C@]1(OC(C)=O)CO[C@@H]1C[C@@H]2O` [PACLITAXEL], the LC50 at 24 h is reported as 0.28 µg/mL (≈ 0.328 µM).
Work on `C=C1[C@@H](O)C[C@H](OC(C)=O)[C@@]2(COC(=O)c3ccccc3)[C@@H](OC(C)=O)[C@H](OC(C)=O)[C@@]3(O)[C@]4(C)OC[C@]3(C)C(CC4=O)[C@@H](OC(C)=O)[C@H]12` [TAXININE M] yielded an LC50 at 24 h of 620 µg/mL (≈ 903 µM).
